1 compound from patent US20110105436A1, “HETEROARYL COMPOUNDS, COMPOSITIONS, AND METHODS OF USE IN CANCER TREATMENT” (AUCKLAND UNISERVICES LIMITED, priority 2008, published 2011) can be followed below.

“Also recorded” adds a separate entry of the source.

The subject of assay [1] is LC3. In words: LC3 processing by Western blot and immunostaining. The class given is cell-based. Conditions: STF-62247 treatment, FIG. 2D, 2E. The procedure: Western blot analysis. After treatments, cells were lysed in urea buffer (9M urea, 75 mM Tris (pH 7.5), 150 mM b-mercaptoethanol), placed on ice for 10 minutes and sonicated briefly (15 seconds). Extracts were centrifugated at 8,000×g for 10 minutes to eliminate insoluble material. Lysates were quantitated using Bio-Rad protein Assay (Bio-Rad Laboratories) and 20-30 μg of proteins were separated on a 7.5% or 15% bis-acrylamide gels and then transferred onto PVDF membranes. Proteins were visualized using HIF-2α (Novus Biological), HIF-1α, pVHL and BiP (BD Biosciences), LC3 (MBL), Atg5, or α-tubulin antibodies.
Immunofluorescence staining. Cells were seeded on glass coverslips and at subconfluence, STF-62247 was added at 1.25 μM for RCC4 and 3.75 μM for SN12C. After 20 hours, cells were fixed in 3.7% formaldehyde for 10 min at room temperature and washed in PBS. Then cells were permeabilized in 0.2% Triton X-100 for 5 min at room temperature and washed in PBS. The coverslips were incubated with primary antibody LC3 diluted 1:500 in PBS containing 0.2% BSA for 1 hour at room temperature. Cells were washed three times in PBS-BSA and the bound primary antibody was detected using a fluorescein-conjugated secondary antibody (ALEXA) diluted 1:500 in PBS-BSA and incubated for 1 hour. Coverslips were washed and mounted in mounting medium from Vector Laboratories according to the manufacturer's instructions. Cells were examined with a confocal microscope
A. Phase contrast pictures of VHL-deficient RCC4 and SN12C-VHL shRNA cells and VHL-positive cells RCC4 and SN12C after 20 hrs of 1.25 μM STF-62247. B. Immunostaining for LC3 following STF-62247 treatment at 1.25 μM for 20 hrs with or without 2 mM of 3-MA in RCC4 with and without VHL cells. After treatment, cells were fixed, permeabilized and processed for the detection of punctuate staining by indirect immunofluorescence. C. Autophagic vacuoles stained with monodansylcadaverine (MDC). After STF-62247 treatment in the same conditions, MDC was added for the last 10 minutes. Cells were fixed, washed with PBS and observed directly under microscope. D. Western blot for LC3 in RCC4, RCC4/VHL, SN12C, and SN12C-VHL shRNA cells after STF-62247 treatment with or without 3-MA. Nutrient starvation (EBSS) is used as positive control. E. Western blot for LC3 in RCC4 and RCC4/VHL with different concentrations of STF-62247. Tubulin was used as loading control. F. Cell viability assay in VHL-deficient RCC4 and wild-type VHL cells treated with 1 mM of 3-MA, 1.25 μM of STF-62247 alone or in combination for 24 hrs. Viability is measured by trypan blue exclusion assay and is represented by the average of three different experiments in duplicate as the percent of treated on untreated cells. The error bars are represented as SEM.
(§1) A. VHL-deficient RCC4 and wild-type VHL were incubated in presence of 10 μM LY294002, or 1 μg/mlBrefeldin A with 1.25 μM of STF-62247 for 20 hrs and the presence of vacuoles was examined under light microscopy. B,C. LC3 processing was evaluated by Western blot after the treatment with Brefeldin A or LY294002 in presence or absence of STF-62247 as described above. Tubulin was used as loading control. D. Cells were treated with 1.25 μM of STF-62247 with or without 2 mM of 3-MA, 1 μg/ml of Brefeldin A for 20 hrs. For the last 15 min, acidic components were stained with 1 μg/ml of acridine orange and visualized under fluorescence microscope. […] F. Quantification of the FACS analysis. The data are calculated as the average of three different experiments as relative units of treated over untreated cells. The error bars are represented as the standard error of the mean (SEM).
B,C. LC3 processing was evaluated by Western blot after the treatment with U0126 or tunicamycin in presence or absence of STF-62247 as described above. Tubulin was used as loading control.
(Immunoblotting shows a protein as a band on a membrane.)

Assay [2] deals with SN12C tumors. In words: Tumor growth of SN12C cells (wild-type VHL) in scid mice. The class given is in vivo. The conditions noted are these: daily intraperitoneal treatment, FIG. 1E. The procedure: In vivo studies. 2−3×10^6 SN12C and SN12C-VHL shRNA cells were injected in male scid mice 4-6 weeks old. When tumor volume reached 150 mm^3, mice were randomized into vehicle control group or STF-62247 treatment group. Mice were treated every day with […] of STF-62247 intraperitoneally. Tumor growth was measured every 2-3 days after the drug treatment was started.
A. RCC4 and RCC4/VHL cells were labeled with EYFP and the effect of STF-62247 was monitored by fluorescence in each cell type separately. Cells are pseudocolored. B. Clonogenic assay in RCC4, RCC4/VHL, SN12C, SN12C-VHL shRNA cells in the presence of STF-62247 (0-30 μM). Each point of the cell survival is calculated by the average of three different experiments in triplicate as the percent of treated on untreated plate. The error bars represented the standard error of the mean (SEM). C. Upper Panel, clonogenic assay in RCC4 infected with HIF-1α or HIF-2α shRNA by retroviral infection in presence of drug in same conditions described above. Bottom panel, HIF-1α or HIF-2α protein expression evaluated by western blot in RCC4 cells with HIF-1α or HIF-2α shRNA. Tubulin is used as loading control. […] Tumor volume was measured every 2-3 days and data are represented in fold. Five tumors in each condition were analyzed where * p<0.05, **p<0.01 and ***p<0.005.

Assay [3] deals with RCC4, RCC4/VHL, SN12C and SN12C-VHL shRNA cells. In words: Acidic vesicle organelles with acridine orange (FACS). The class given is cell-based. Conditions: 1.25 μM, VHL-deficient versus wild-type VHL cells. The method, then: Quantification of Acidic Vesicle Organelles with Acridine Orange. In acridine orange-stained cells, the cytoplasm and nucleus are bright green and dim red, whereas acidic compartments are bright red. The intensity of the red fluorescence is proportional to the degree of acidity. Following 20 hours of treatment with STF-62247 or analogs, cells were stained with 1 μg/ml of acridine orange for 15 min. Cells were trypsinized and then analyzed by flow cytometry using FACScan cytometer and CellQuest software.
as §1
A. RCC4 and RCC4/VHL were treated with 1.25 μM of each 19 analogs for 20 hours and the presence of vacuoles was examined under light microscopy. B. Western blot for LC3 after treatment with each compound. Tubulin was used as loading control. Ratio is the relative from the IC50 in RCC4/VHL cells/IC50 in RCC4 cells. C. Acidic vesicle organelles (AVO) measured by FACS analysis in cells treated with 1.25 μM of STF-62247 or with compounds 21, 15, 25, 47, and 53 and stained with acridine orange.

`Cc1cccc(Nc2nc(-c3ccncc3)cs2)c1` [Compound 5, N-(3-Methylphenyl)-4-(4-pyridinyl)-1,3-thiazol-2-amine]: the “LC3-II (lipidated form)” value in assay [1] is “induced by STF-62247 treatment; also recorded: increases in a concentration-dependent manner”. Besides, the tumor growth entry in assay [2] is “did not have any effect on the growth of SN12C tumor cells that have wild-type VHL”. Besides, the “acridine orange staining / amount of AVOs” value in assay [3] was “significantly increased in VHL-deficient RCC4 cells compared to their wild-type VHL counterparts”.
